Laboratory results published in US10870630B2, “Substituted bicyclic heteroaryl allosteric modulators of nicotinic acetylcholine receptors” (Merck Sharp & Dohme Corp., priority 2016, dated 2020).
Like-named read-outs stand apart in the source and are kept apart here.

Molecular target: human α7 nicotinic acetylcholine receptor (α7 nAChR) (Homo sapiens, UniProt P36544)
Experiment: Automated patch-clamp electrophysiology functional assay (Assay A)
Format: cell-based
Settings: HEK cell line stably expressing human RIC-3 and human α7, IonFlux HT whole-cell population patch, 40 μM acetylcholine
Method: The α7 nAChR positive allosteric modulator (PAM) activity of the present compounds may be tested using assays known in the art. The α7 nAChR PAMs described herein have activities in an automated patch-clamp electrophysiology functional assay as described in the examples. The assay was performed using the IonFlux HT in a whole-cell, population patch configuration. See Golden et al. Assay Drug Dev. Technol. (2011) 9:608-619. The compounds were assessed for their ability to modulate the function of the human […] nAChR stably expressed in a HEK cell line both in the presence, and in the absence of the natural 07 agonist acetylcholine. By performing a series of such measurements at different concentrations, the effective concentration of the α7 nAChR PAMs (EC50) was determined. See Spencer et al. Assay Drug Dev. Technol. (2012) 10:313-324.
Automated patch-clamp electrophysiology was performed using the IonFlux HT (Fluxion Biosciences Inc., San Francisco, Calif.) in the whole-cell, population patch configuration. Test compounds were assessed for their ability to modulate the function of the α7 nicotinic acetylcholine receptor both in the presence, and in the absence of the natural α7 agonist acetylcholine. A HEK cell line stably expressing both human RIC-3 and human α7 (PrecisION hnAChR α7/RIC-3, Eurofins Pharma, St. Charles, Mo.) was cultured in 175 cm^2 triple-layer tissue culture flasks to no more than 90% confluency in DMEM/F-12 growth media supplemented with 10% heat-inactivated fetal bovine serum, 1% non-essential amino acids, 0.625 μg/mL Puromycin, and 400 μg/mL Geneticin. Immediately prior to assay, cells were detached by first aspirating growth media, rinsing with Dulbecco's phosphate buffered saline, and then adding 10 mL of Accutase (Innovative Cell Technologies, San Diego, Calif.) to the flask and then incubating at 37° C. for 5 minutes. Detached cells were then recovered by the addition of 40 mL of CHO-serum-free media supplemented with 25 mM HEPES, and rocked gently in a 50 mL conical tube for 20 minutes prior to patch-clamp assay. After recovery, cells were pelleted by centrifugation at 1,000 RPM for 1 minute in a compact bench top centrifuge; recovery media was aspirated and cells were resuspended in external recording solution (150 mM NaCl, 5 mM KCl, 2 mM CaCl2, 1 mM MgCl2, 10 mM HEPES, 12 mM dextrose) to a density of 5.0×10^6 cells/mL. The cell suspension was added to the cell inlet wells on an IonFlux HT population patch plate which had previously been rinsed and primed with deionized H2O. Test compounds were serially diluted in DMSO and then resuspended to the final test concentration in external recording solution, with, or without 40 μM acetylcholine added to the external recording solution; test compounds were then transferred to the IonFlux HT population patch plate. Internal recording solution (110 mM TrisPO4, 28 mM TrisBase, 0.1 mM CaCl2, 2 mM MgCl2, 11 mM EGTA, 4 mM MgATP) was added to the internal recording solution inlet wells on the IonFlux HT patch plate previously loaded with cells and test compounds, and the plate loaded into the IonFlux HT instrument. A protocol was executed on the IonFlux HT to trap the cells, break into the cells, and establish the whole-cell recording configuration; cells were voltage-clamped at a holding potential of −60 mV for the duration of the experiment, all experiments were conducted at room temperature, and the IonFlux HT injection pressure was 8 psi for solution applications. Upon establishing the whole-cell configuration, external recording solution was perfused into the recording chambers for 120 seconds and then 40 μM acetylcholine was applied for 1 second and immediately washed off with external recording solution for 60 seconds. The 40 μM acetylcholine-evoked α7 current served as the current response to which subsequent test compound effects, in the presence, or in the absence of 40 μM acetylcholine would be quantified relative to. […]

Sequence of human α7 nicotinic acetylcholine receptor (α7 nAChR) (P36544 23-502): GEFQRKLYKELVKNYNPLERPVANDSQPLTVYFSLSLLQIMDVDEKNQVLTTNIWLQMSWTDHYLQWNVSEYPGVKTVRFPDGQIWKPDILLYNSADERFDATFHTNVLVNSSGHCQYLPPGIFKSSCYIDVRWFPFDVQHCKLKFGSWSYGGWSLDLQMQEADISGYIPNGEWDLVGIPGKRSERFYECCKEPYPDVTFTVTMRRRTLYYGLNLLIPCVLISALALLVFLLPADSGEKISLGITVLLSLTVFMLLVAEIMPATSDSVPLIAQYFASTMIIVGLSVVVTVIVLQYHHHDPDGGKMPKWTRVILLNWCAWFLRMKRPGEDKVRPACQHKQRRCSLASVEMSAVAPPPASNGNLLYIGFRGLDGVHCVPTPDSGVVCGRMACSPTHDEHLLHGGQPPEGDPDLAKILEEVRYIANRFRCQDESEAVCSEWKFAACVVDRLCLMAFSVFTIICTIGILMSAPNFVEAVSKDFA

Structure (SMILES)	EC50 (read-out: α7 nAChR EC50)	EC50 (read-out: α7 nAChR Potency)
CC1(C)[C@@H](c2ccc(S(N)(=O)=O)cc2)[C@@H]1c1nc2ccccc2o1 [Example A4, 4-[(1S,3S)-3-(1,3-Benzoxazol-2-yl)-2,2-dimethyl-cyclopropyl]benzenesulfonamide]	0.28 µM	0.1 to 0.5 µM
CC1(C)[C@@H](c2ccc(S(N)(=O)=O)cc2)[C@@H]1c1nc2ccc(Cl)cc2o1 [Example A5, 4-[(1S,3S)-3-(6-Chloro-1,3-benzoxazol-2-yl)-2,2-dimethyl-cyclopropyl]benzenesulfonamide]	1.2 µM	0.5 to 5 µM
CC1(C)[C@@H](c2ccc(S(N)(=O)=O)cc2)[C@@H]1c1nc2cc(Cl)ccc2o1 [Example A6, 4-[(1S,3S)-3-(5-Chloro-1,3-benzoxazol-2-yl)-2,2-dimethyl-cyclopropyl]benzenesulfonamide]	0.43 µM	0.1 to 0.5 µM
NS(=O)(=O)c1ccc([C@H]2[C@H](c3nc4ccccc4o3)C2(F)F)cc1 [Example A7, 4-[(1R,3R)-3-(1,3-Benzoxazol-2-yl)-2,2-difluoro-cyclopropyl]benzenesulfonamide]	0.052 µM	≤ 0.1 µM
NS(=O)(=O)c1ccc([C@H]2[C@H](c3nc4ccccc4s3)C2(F)F)cc1 [Example A8, 4-[(1R,3S)-3-(1,3-Benzothiazol-2-yl)-2,2-difluoro-cyclopropyl]benzenesulfonamide]	0.038 µM	≤ 0.1 µM
NS(=O)(=O)c1ccc([C@H]2[C@H](c3nc4ccccc4[nH]3)C2(F)F)cc1 [Example A9, 4-[(1R,3R)-3-(1H-Benzimidazol-2-yl)-2,2-difluorocyclopropyl]benzenesulfonamide]	–	0.5 to 5 µM
CC1(C)[C@H](c2ccc(S(N)(=O)=O)cc2)[C@H]1c1nc2c(F)cc(F)cc2o1 [Example B1, 4-[(1R,3R)-3-(4,6-Difluoro-1,3-benzoxazol-2-yl)-2,2-dimethyl-cyclopropyl]benzenesulfonamide]	–	0.1 to 0.5 µM
CC1(C)[C@H](c2ccc(S(N)(=O)=O)cc2)[C@H]1c1nc2ccc(F)cc2o1 [Example B2, 4-[(1R,3R)-3-(6-Fluoro-1,3-benzoxazol-2-yl)-2,2-dimethyl-cyclopropyl]benzenesulfonamide]	0.3 µM	0.1 to 0.5 µM
CC1(C)[C@H](c2ccc(S(N)(=O)=O)cc2)[C@H]1c1nc2ccccc2s1 [Example B3, 4-[(1R,3R)-3-(1,3-Benzothiazol-2-yl)-2,2-dimethyl-cyclopropyl]benzenesulfonamide]	3.4 µM	0.5 to 5 µM
NS(=O)(=O)c1ccc([C@H]2C[C@@H]2c2nc3ccccc3o2)cc1 [Example B4, 4-[(1S,2S)-2-(1,3-Benzoxazol-2-yl)cyclopropyl]benzenesulfonamide]	–	0.5 to 5 µM
CC1(C)[C@H](c2ccc(S(N)(=O)=O)cc2)[C@H]1c1nc2ccc(Cl)cc2o1 [Example B5, 4-[(1R,3R)-3-(6-Chloro-1,3-benzoxazol-2-yl)-2,2-dimethyl-cyclopropyl]benzenesulfonamide]	–	0.1 to 0.5 µM
CC1(C)[C@H](c2ccc(S(N)(=O)=O)cc2)[C@H]1c1nc2cc(Cl)ccc2o1 [Example B6, 4-[(1R,3R)-3-(5-Chloro-1,3-benzoxazol-2-yl)-2,2-dimethyl-cyclopropyl]benzenesulfonamide]	0.2 µM	0.1 to 0.5 µM
NS(=O)(=O)c1ccc([C@H]2C[C@@H]2c2nc3ccc(F)cc3o2)cc1 [Example B7, 4-[(1 S,2S)-2-(6-Fluoro-1,3-benzoxazol-2-yl)cyclopropyl]benzenesulfonamide]	4.2 µM	0.5 to 5 µM
CC1(C)[C@H](c2ccc(S(N)(=O)=O)cc2)[C@H]1c1nc2c(F)cc(F)cc2s1 [Example B8, 4-[(1R,3R)-3-(4,6-Difluoro-1,3-benzothiazol-2-yl)-2,2-dimethyl-cyclopropyl]benzenesulfonamide]	–	0.1 to 0.5 µM
CC1(C)[C@H](c2ccc(S(N)(=O)=O)cc2)[C@H]1c1nc2ccc(F)cc2s1 [Example B9, 4-[(1R,3R)-3-(6-Fluoro-1,3-benzothiazol-2-yl)-2,2-dimethyl-cyclopropyl]benzenesulfonamide]	0.17 µM	0.1 to 0.5 µM
COc1ccc2oc([C@@H]3[C@@H](c4ccc(S(N)(=O)=O)cc4)C3(C)C)nc2c1 [Example B10, 4-[(1R,3R)-3-(5-Methoxy-1,3-benzoxazol-2-yl)-2,2-dimethyl-cyclopropyl]benzenesulfonamide]	0.66 µM	0.5 to 5 µM
NS(=O)(=O)c1ccc([C@@H]2[C@@H](c3nc4ccccc4o3)C2(F)F)cc1 [Example B11, 4-[(1S,3S)-3-(1,3-Benzoxazol-2-yl)-2,2-difluoro-cyclopropyl]benzenesulfonamide]	0.43 µM	0.1 to 0.5 µM
NS(=O)(=O)c1ccc([C@@H]2[C@@H](c3nc4ccccc4s3)C2(F)F)cc1 [Example B12, 4-[(1S,3R)-3-(1,3-Benzothiazol-2-yl)-2,2-difluoro-cyclopropyl]benzenesulfonamide]	–	0.1 to 0.5 µM

Other lines, results leading:

EC50 (read-out: α7 nAChR EC50)	EC50 (read-out: α7 nAChR Potency)	Structure (SMILES)
1.4 µM	0.5 to 5 µM	CC1(C)[C@@H](c2ccc(S(N)(=O)=O)cc2)[C@@H]1c1ncc2ccccc2n1 [Example C1, 4-[(1S,3S)-2,2-Dimethyl-3-quinazolin-2-yl-cyclopropyl]benzenesulfonamide]
–	0.5 to 5 µM	CC1(C)[C@@H](c2ccc(S(N)(=O)=O)cc2)[C@@H]1c1ncc2c(F)cccc2n1 [Example C2, 4-[(1S,3S)-3-(5-Fluoroquinazolin-2-yl)-2,2-dimethyl-cyclopropyl]benzenesulfonamide]
0.12 µM	0.1 to 0.5 µM	CC1(C)[C@@H](c2ccc(S(N)(=O)=O)cc2)[C@@H]1c1nc2c(o1)CCCC2 [Example C3, 4-[(1S,3S)-2,2-Dimethyl-3-(4,5,6,7-tetrahydro-1,3-benzoxazol-2-yl)cyclopropyl]benzenesulfonamide]
–	0.5 to 5 µM	NS(=O)(=O)c1ccc([C@H]2[C@H](c3nc4c(o3)CCCC4)C2(F)F)cc1 [Example C4, 4-[(1R,3R)-2,2-Difluoro-3-(4,5,6,7-tetrahydro-1,3-benzoxazol-2-yl)cyclopropyl]benzenesulfonamide]
7.2 µM	5 to 50 µM	CC1(C)[C@H](c2ccc(S(N)(=O)=O)cc2)[C@H]1c1ncc2ccccc2n1 [Example D1, 4-[(1R,3R)-2,2-Dimethyl-3-quinazolin-2-yl-cyclopropyl]benzenesulfonamide]
3.4 µM	0.5 to 5 µM	CC1(C)[C@H](c2ccc(S(N)(=O)=O)cc2)[C@H]1c1nc2ccncc2o1 [Example D2, 4-[(1R,3R)-2,2-Dimethyl-3-oxazolo[5,4-c]pyridin-2-yl-cyclopropyl]benzenesulfonamide]
–	0.5 to 5 µM	CC1(C)[C@H](c2ccc(S(N)(=O)=O)cc2)[C@H]1c1nc2c(o1)CCCC2 [Example D3, 4-[(1R,3R)-2,2-Dimethyl-3-(4,5,6,7-tetrahydro-1,3-benzoxazol-2-yl)cyclopropyl]benzenesulfonamide]
–	5 to 50 µM	Cn1c([C@@H]2[C@@H](c3ccc(S(N)(=O)=O)cc3)C2(C)C)nc2cc(F)cc(F)c21 [Example D4, 4-[(1R,3R)-3-(5,7-Difluoro-1-methyl-benzimidazol-2-yl)-2,2-dimethyl-cyclopropyl]benzenesulfonamide]
1.1 µM	0.5 to 5 µM	CC1(C)OC([C@@H]2[C@@H](c3ccc(S(N)(=O)=O)cc3)C2(F)F)=Nc2ccccc21 [Example D5, 4-[(1S,3S)-3-(4,4-Dimethyl-4H-3,1-benzoxazin-2-yl)-2,2-difluorocyclopropyl]benzenesulfonamide]
